What was measured:
[1] = test system: human tumor cells or normal cells; settings: Li, et al., 2013; cited from earlier work
T. sebifera seedlings = assay: Droplet test and foliar spray of fractions on Chinese tallow seedlings; parameters: species or system Triadica sebifera; settings: in vivo
Source text: The leaf surfaces of the experimental plants were checked daily for two weeks by a ×60 portable microscope linked to an iPhone™.

Giant Salvinia = assay: Leaf-blade droplet bioassay on giant salvinia; assay type: in vivo, Salvinia molesta; settings: for Activity against Giant Salvinia: 8 μL of 1% solution on lower leaf surface
Method: The three plants in the first container served as control without any treatment, three plants in the second container were treated with 1% DMSO, three plants in the third container were treated with 5% DMSO, three plants in the fourth container were treated with 0.5% Dyne-Amic®, and the plants in each of the other four containers were treated with each of the four testing isolates, respectively. For each of the three plant in the 0.5% Dyne-Amic® treatment, 8 μL of 0.5% Dyne-Amic® was applied on the lower surface of each of the two mature leaf blades close to the terminal bud by pipet and 8 μL of 0.5% Dyne-Amic® was applied on the upper surface (with trichomes) of each of the two other mature leaf blades close to the terminal bud by pipet. For all three plants in each of the DMSO or testing isolates treatment containers, 8 μL of each experimental solution was applied on the lower surface of each of the two mature leaf blades close to the terminal bud by pipet.

A. palmeri = assay: Leaf droplet bioassay on A. palmeri seedlings; assay type: in vivo, Amaranthus palmeri; settings: 10 μL 0.5% glyphosate
Method: Bioassays: The experimental plants were 3-week-old A. palmeri seedlings germinated from the seeds collected from the above described glyphosate-resistant plants. The seedlings were grown in pots with Miracle Grow Potting Mix soil in the greenhouse (30° C. during the day time and 20° C. at night). The intact seedling plants of 3-week old Q. texana and 2-month-old L. styraciflua grown in pots in greenhouse were also tested in this experiment. […] The leaf surfaces of the experimental plants were checked daily for two weeks by a ×60 portable microscope linked to an iPhone™.

SMILES | cytotoxicity against human tumor cells or normal cells [1] | Activity against Giant Salvinia (Giant Salvinia) | leaf injury during the two weeks of observation (Giant Salvinia; 8 μL/leaf, 1% solution) | also measured
CC(=O)/C=C/[C@H]1C(C)=C[C@H](O)CC1(C)C | did not show any cytotoxicity |  |  | 
COc1c(OC)c(OC)c2oc(=O)ccc2c1OC [5,6,7,8-Tetramethoxycoumarin, 5,6,7,8-tetramethoxycoumarin] |  |  |  | endocidal activity in the droplet test (T. sebifera seedlings): showed endocidal activity
CC(=O)/C=C/C1=C(C)C[C@@H](O)CC1(C)C [compound 1, (+)-3-Hydroxy-β-ionone] | did not show any cytotoxicity | Potent activity |  | leaves dead by the end of experiment (of six) (Giant Salvinia; 8 μL/leaf, 1% solution): two leaves were dead; time to significant injury of the six treated leaf blades (Giant Salvinia; 8 μL/leaf, 1% solution, lower surface): ≤ 12 h; time to death of lower surface contact tissues (FIG. 1) (Giant Salvinia; applied on the lower surface of the leaf blade): ≤ 12 h
CC(=O)/C=C/[C@H]1C(C)=C[C@H](O)CC1(C)C [compound 2, (3R,6R,7E)-3-hydroxy-4,7-megastigmadien-9-one] |  | Weak activity | no or slight injury | 
CC(=O)/C=C/[C@@]12O[C@]1(C)C[C@@H](O)CC2(C)C [compound 3, Annuionone D] | did not show any cytotoxicity | No activity | no or slight injury | 
CC(=O)/C=C/[C@@]1(O)C(C)=CC(=O)CC1(C)C [compound 4, Dehydrovomifoliol] | did not show any cytotoxicity | No activity | no or slight injury | 
O=C(O)CNCP(=O)(O)O [glyphosate] |  |  |  | leaf injury (A. palmeri): no injury

Source: patent US20170295783A1, “COMPOSITIONS AND METHODS TO SELECTIVELY CONTROL SPECIES” (STEPHEN F. AUSTIN STATE UNIVERSITY, priority 2014, published 2017)
